# Test results taken from ChEMBL document CHEMBL3045511, “Effects of Two Isoflavonoids, Osajin and Pomiferin, from Maclura pomifera for Growth and Feeding Disruption in Ostrinia nubilalis” (2001).
# How the values were obtained:
# Format in all cases: functional
# Ostrinia nubilalis [1] = test: Antifeedant activity against Ostrinia nubilalis (European corn borer) larvae assessed as amount of weight gain by the insect at 0.20% of diet dry weight after 5 days relative to control
# Ostrinia nubilalis [2] = test: Antifeedant activity against Ostrinia nubilalis (European corn borer) larvae assessed as amount of weight gain by the insect at 0.40% of diet dry weight after 5 days relative to control
# Ostrinia nubilalis [3] = test: Antifeedant activity against Ostrinia nubilalis (European corn borer) larvae assessed as amount of weight gain by the insect at 0.60% of diet dry weight after 5 days relative to control
# Ostrinia nubilalis [4] = test: Antifeedant activity against Ostrinia nubilalis (European corn borer) larvae assessed as amount of weight gain by the insect at 0.80% of diet dry weight after 5 days relative to control
# Ostrinia nubilalis [5] = test: Antifeedant activity against Ostrinia nubilalis (European corn borer) larvae assessed as amount of food consumed at 0.10% of diet dry weight after 5 days relative to control
# Ostrinia nubilalis [6] = test: Antifeedant activity against Ostrinia nubilalis (European corn borer) larvae assessed as amount of food consumed at 0.20% of diet dry weight after 5 days relative to control
# Ostrinia nubilalis [7] = test: Antifeedant activity against Ostrinia nubilalis (European corn borer) larvae assessed as amount of food consumed at 0.40% of diet dry weight after 5 days relative to control
# Ostrinia nubilalis [8] = test: Antifeedant activity against Ostrinia nubilalis (European corn borer) larvae assessed as amount of food consumed at 0.60% of diet dry weight after 5 days relative to control
# Ostrinia nubilalis [9] = test: Antifeedant activity against Ostrinia nubilalis (European corn borer) larvae assessed as amount of food consumed at 0.80% of diet dry weight after 5 days relative to control
# Ostrinia nubilalis [10] = test: Antifeedant activity against Ostrinia nubilalis (European corn borer) larvae assessed as feeding rate at 0.80% of diet dry weight after 5 days relative to control
# Ostrinia nubilalis [11] = test: Antifeedant activity against Ostrinia nubilalis (European corn borer) larvae assessed as amount excreted at 0.10% of diet dry weight after 5 days relative to control
# Ostrinia nubilalis [12] = test: Antifeedant activity against Ostrinia nubilalis (European corn borer) larvae assessed as amount excreted at 0.20% of diet dry weight after 5 days relative to control
# Ostrinia nubilalis [13] = test: Antifeedant activity against Ostrinia nubilalis (European corn borer) larvae assessed as amount excreted at 0.40% of diet dry weight after 5 days relative to control
# Ostrinia nubilalis [14] = test: Antifeedant activity against Ostrinia nubilalis (European corn borer) larvae assessed as amount excreted at 0.60% of diet dry weight after 5 days relative to control
# Ostrinia nubilalis [15] = test: Antifeedant activity against Ostrinia nubilalis (European corn borer) larvae assessed as amount excreted at 0.80% of diet dry weight after 5 days relative to control
# Ostrinia nubilalis [16] = test: Antifeedant activity against Ostrinia nubilalis (European corn borer) larvae assessed as amount of weight gain by the insect at 0.10% of diet dry weight after 5 days relative to control
# Ostrinia nubilalis [17] = test: Effect on growth of female Ostrinia nubilalis (European corn borer) larvae assessed as pupal weight at 0.10% of diet dry weight after 6 days relative to control
# Ostrinia nubilalis [18] = test: Effect on growth of male Ostrinia nubilalis (European corn borer) larvae assessed as pupal weight at 0.10% of diet dry weight after 6 days relative to control
# Ostrinia nubilalis [19] = test: Effect on growth of female Ostrinia nubilalis (European corn borer) larvae assessed as pupal weight at 1% of diet dry weight after 6 days relative to control
# Ostrinia nubilalis [20] = test: Effect on growth of male Ostrinia nubilalis (European corn borer) larvae assessed as pupal weight at 1% of diet dry weight after 6 days relative to control
# Ostrinia nubilalis [21] = test: Effect on growth of female Ostrinia nubilalis (European corn borer) larvae assessed as larval duration at 0.001% of diet dry weight after 6 days relative to control
# Ostrinia nubilalis [22] = test: Effect on growth of male Ostrinia nubilalis (European corn borer) larvae assessed as larval duration at 0.001% of diet dry weight after 6 days relative to control
# Ostrinia nubilalis [23] = test: Effect on growth of female Ostrinia nubilalis (European corn borer) larvae assessed as larval duration at 0.01% of diet dry weight after 6 days relative to control
# Ostrinia nubilalis [24] = test: Effect on growth of male Ostrinia nubilalis (European corn borer) larvae assessed as larval duration at 0.01% of diet dry weight after 6 days relative to control
# Ostrinia nubilalis [25] = test: Effect on growth of female Ostrinia nubilalis (European corn borer) larvae assessed as larval duration at 0.10% of diet dry weight after 6 days relative to control
# Ostrinia nubilalis [26] = test: Effect on growth of male Ostrinia nubilalis (European corn borer) larvae assessed as larval duration at 0.10% of diet dry weight after 6 days relative to control
# Ostrinia nubilalis [27] = test: Effect on growth of female Ostrinia nubilalis (European corn borer) larvae assessed as larval duration at 1% of diet dry weight after 6 days relative to control
# Ostrinia nubilalis [28] = test: Effect on growth of male Ostrinia nubilalis (European corn borer) larvae assessed as larval duration at 1% of diet dry weight after 6 days relative to control
# Ostrinia nubilalis [29] = test: Antifeedant activity against Ostrinia nubilalis (European corn borer) larvae assessed as excretion rate at 0.10% of diet dry weight after 5 days relative to control
# Ostrinia nubilalis [30] = test: Antifeedant activity against Ostrinia nubilalis (European corn borer) larvae assessed as excretion rate at 0.20% of diet dry weight after 5 days relative to control
# Ostrinia nubilalis [31] = test: Antifeedant activity against Ostrinia nubilalis (European corn borer) larvae assessed as excretion rate at 0.40% of diet dry weight after 5 days relative to control
# Ostrinia nubilalis [32] = test: Antifeedant activity against Ostrinia nubilalis (European corn borer) larvae assessed as excretion rate at 0.60% of diet dry weight after 5 days relative to control
# Ostrinia nubilalis [33] = test: Antifeedant activity against Ostrinia nubilalis (European corn borer) larvae assessed as excretion rate at 0.80% of diet dry weight after 5 days relative to control
# Ostrinia nubilalis [34] = test: Antifeedant activity against Ostrinia nubilalis (European corn borer) larvae assessed as growth rate at 0.10% of diet dry weight after 5 days relative to control
# Ostrinia nubilalis [35] = test: Antifeedant activity against Ostrinia nubilalis (European corn borer) larvae assessed as growth rate at 0.20% of diet dry weight after 5 days relative to control
# Ostrinia nubilalis [36] = test: Antifeedant activity against Ostrinia nubilalis (European corn borer) larvae assessed as growth rate at 0.40% of diet dry weight after 5 days relative to control
# Ostrinia nubilalis [37] = test: Antifeedant activity against Ostrinia nubilalis (European corn borer) larvae assessed as growth rate at 0.60% of diet dry weight after 5 days relative to control
# Ostrinia nubilalis [38] = test: Antifeedant activity against Ostrinia nubilalis (European corn borer) larvae assessed as growth rate at 0.80% of diet dry weight after 5 days relative to control
# Ostrinia nubilalis [39] = test: Antifeedant activity against Ostrinia nubilalis (European corn borer) larvae assessed as feeding rate at 0.10% of diet dry weight after 5 days relative to control
# Ostrinia nubilalis [40] = test: Antifeedant activity against Ostrinia nubilalis (European corn borer) larvae assessed as feeding rate at 0.20% of diet dry weight after 5 days relative to control
# Ostrinia nubilalis [41] = test: Antifeedant activity against Ostrinia nubilalis (European corn borer) larvae assessed as feeding rate at 0.40% of diet dry weight after 5 days relative to control
# Ostrinia nubilalis [42] = test: Antifeedant activity against Ostrinia nubilalis (European corn borer) larvae assessed as feeding rate at 0.60% of diet dry weight after 5 days relative to control
# Ostrinia nubilalis [43] = test: Insecticidal activity against Ostrinia nubilalis (European corn borer) larvae assessed as mortality at 0.10 to 0.80% of diet dry weight after 5 days relative to control
# Ostrinia nubilalis [44] = test: Effect on growth of female Ostrinia nubilalis (European corn borer) larvae assessed as adult emergence at 0.001% of diet dry weight after 6 days relative to control
# Ostrinia nubilalis [45] = test: Effect on growth of male Ostrinia nubilalis (European corn borer) larvae assessed as adult emergence at 0.001% of diet dry weight after 6 days relative to control
# Ostrinia nubilalis [46] = test: Effect on growth of female Ostrinia nubilalis (European corn borer) larvae assessed as adult emergence at 0.01% of diet dry weight after 6 days relative to control
# Ostrinia nubilalis [47] = test: Effect on growth of male Ostrinia nubilalis (European corn borer) larvae assessed as adult emergence at 0.01% of diet dry weight after 6 days relative to control
# Ostrinia nubilalis [48] = test: Effect on growth of female Ostrinia nubilalis (European corn borer) larvae assessed as adult emergence at 0.10% of diet dry weight after 6 days relative to control
# Ostrinia nubilalis [49] = test: Effect on growth of male Ostrinia nubilalis (European corn borer) larvae assessed as adult emergence at 0.10% of diet dry weight after 6 days relative to control
# Ostrinia nubilalis [50] = test: Effect on growth of female Ostrinia nubilalis (European corn borer) larvae assessed as adult emergence at 1% of diet dry weight after 6 days relative to control
# Ostrinia nubilalis [51] = test: Effect on growth of male Ostrinia nubilalis (European corn borer) larvae assessed as adult emergence at 1% of diet dry weight after 6 days relative to control
# Ostrinia nubilalis [52] = test: Effect on growth of female Ostrinia nubilalis (European corn borer) larvae assessed as pupal duration at 0.001% of diet dry weight after 6 days relative to control
# Ostrinia nubilalis [53] = test: Effect on growth of male Ostrinia nubilalis (European corn borer) larvae assessed as pupal duration at 0.001% of diet dry weight after 6 days relative to control
# Ostrinia nubilalis [54] = test: Effect on growth of female Ostrinia nubilalis (European corn borer) larvae assessed as pupal duration at 0.01% of diet dry weight after 6 days relative to control
# Ostrinia nubilalis [55] = test: Effect on growth of male Ostrinia nubilalis (European corn borer) larvae assessed as pupal duration at 0.01% of diet dry weight after 6 days relative to control
# Ostrinia nubilalis [56] = test: Effect on growth of female Ostrinia nubilalis (European corn borer) larvae assessed as pupal duration at 0.10% of diet dry weight after 6 days relative to control
# Ostrinia nubilalis [57] = test: Effect on growth of male Ostrinia nubilalis (European corn borer) larvae assessed as pupal duration at 0.10% of diet dry weight after 6 days relative to control
# Ostrinia nubilalis [58] = test: Effect on growth of female Ostrinia nubilalis (European corn borer) larvae assessed as pupal duration at 1% of diet dry weight after 6 days relative to control
# Ostrinia nubilalis [59] = test: Effect on growth of male Ostrinia nubilalis (European corn borer) larvae assessed as pupal duration at 1% of diet dry weight after 6 days relative to control
# Ostrinia nubilalis [60] = test: Effect on growth of female Ostrinia nubilalis (European corn borer) larvae assessed as pupal weight at 0.001% of diet dry weight after 6 days relative to control
# Ostrinia nubilalis [61] = test: Effect on growth of male Ostrinia nubilalis (European corn borer) larvae assessed as pupal weight at 0.001% of diet dry weight after 6 days relative to control
# Ostrinia nubilalis [62] = test: Effect on growth of female Ostrinia nubilalis (European corn borer) larvae assessed as pupal weight at 0.01% of diet dry weight after 6 days relative to control
# Ostrinia nubilalis [63] = test: Effect on growth of male Ostrinia nubilalis (European corn borer) larvae assessed as pupal weight at 0.01% of diet dry weight after 6 days relative to control
smiles,measurement,setting,value
CC(C)=CCc1c2c(c3occ(-c4ccc(O)c(O)c4)c(=O)c3c1O)C=CC(C)(C)O2 [POMIFERIN],Activity,Ostrinia nubilalis [1],17.7%
same,Activity,Ostrinia nubilalis [2],18.2%
same,Activity,Ostrinia nubilalis [3],31.5%
same,Activity,Ostrinia nubilalis [4],36.5%
same,Activity,Ostrinia nubilalis [5],33.2%
same,Activity,Ostrinia nubilalis [6],36.9%
same,Activity,Ostrinia nubilalis [7],34.2%
same,Activity,Ostrinia nubilalis [8],38.5%
same,Activity,Ostrinia nubilalis [9],40.1%
same,Activity,Ostrinia nubilalis [10],20.7%
same,Activity,Ostrinia nubilalis [11],30.4%
same,Activity,Ostrinia nubilalis [12],8.2%
same,Activity,Ostrinia nubilalis [13],5.4%
same,Activity,Ostrinia nubilalis [14],16.1%
same,Activity,Ostrinia nubilalis [15],23%
same,Activity,Ostrinia nubilalis [16],38.1%
same,Activity,Ostrinia nubilalis [17],100 mg
same,Activity,Ostrinia nubilalis [18],74 mg
same,Activity,Ostrinia nubilalis [19],109 mg
same,Activity,Ostrinia nubilalis [20],72 mg
same,Time,Ostrinia nubilalis [21],11.7 days
same,Time,Ostrinia nubilalis [22],10.7 days
same,Time,Ostrinia nubilalis [23],11.7 days
same,Time,Ostrinia nubilalis [24],10.9 days
same,Time,Ostrinia nubilalis [25],12.1 days
same,Time,Ostrinia nubilalis [26],11.1 days
same,Time,Ostrinia nubilalis [27],12.9 days
same,Time,Ostrinia nubilalis [28],11.2 days
same,Activity,Ostrinia nubilalis [29],0%
same,Activity,Ostrinia nubilalis [30],-7%
same,Activity,Ostrinia nubilalis [31],-12%
same,Activity,Ostrinia nubilalis [32],-12%
same,Activity,Ostrinia nubilalis [33],-10%
same,Activity,Ostrinia nubilalis [34],13.3%
same,Activity,Ostrinia nubilalis [35],4.7%
same,Activity,Ostrinia nubilalis [36],5.3%
same,Activity,Ostrinia nubilalis [37],10%
same,Activity,Ostrinia nubilalis [38],12%
same,Activity,Ostrinia nubilalis [39],-1%
same,Activity,Ostrinia nubilalis [40],34.6%
same,Activity,Ostrinia nubilalis [41],29%
same,Activity,Ostrinia nubilalis [42],23.2%
same,mortality,Ostrinia nubilalis [43],<=11%
same,Activity,Ostrinia nubilalis [44],50%
same,Activity,Ostrinia nubilalis [45],78%
same,Activity,Ostrinia nubilalis [46],54%
same,Activity,Ostrinia nubilalis [47],67%
same,Activity,Ostrinia nubilalis [48],67%
same,Activity,Ostrinia nubilalis [49],25%
same,Activity,Ostrinia nubilalis [50],67%
same,Activity,Ostrinia nubilalis [51],60%
same,Time,Ostrinia nubilalis [52],6.7 days
same,Time,Ostrinia nubilalis [53],7 days
same,Time,Ostrinia nubilalis [54],7 days
same,Time,Ostrinia nubilalis [55],7.2 days
same,Time,Ostrinia nubilalis [56],6.3 days
same,Time,Ostrinia nubilalis [57],7.5 days
same,Time,Ostrinia nubilalis [58],6.4 days
same,Time,Ostrinia nubilalis [59],6.7 days
same,Activity,Ostrinia nubilalis [60],85 mg
same,Activity,Ostrinia nubilalis [61],76 mg
same,Activity,Ostrinia nubilalis [62],96 mg
same,Activity,Ostrinia nubilalis [63],72 mg
